Assay results taken from PubChem BioAssay (NCI).
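Dose response: 5 concentrations. Exposure: 48 h. Format: 96-well plates. Endpoint: linear interpolation; highest concentration if not reached. GI50: concentration for 50% inhibition of growth. The concentration for full growth arrest is given as TGI.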

Tests used:
Assay in all cases: NCI anticancer screen, dose series, 48 h; in the data active = GI50 below about 0.43 µM; inactive = the rest
SN12C renal = tested on: SN12C renal
HCT-116 colon = tested on: HCT-116 colon
SK-OV-3 ovarian = tested on: SK-OV-3 ovarian
SF-268 CNS = tested on: SF-268 CNS
RPMI-8226 leukemia = tested on: RPMI-8226 leukemia
IGROV1 ovarian = tested on: IGROV1 ovarian
HOP-62 NSCLC = tested on: HOP-62 NSCLC
NCI-H226 lung = tested on: NCI-H226 lung
SK-MEL-28 melanoma = tested on: SK-MEL-28 melanoma
PC-3 prostate = tested on: PC-3 prostate

COc1cc(/C=C\c2ccc(Br)cc2)cc(OC)c1OC
54 µM: TGI (SF-268 CNS)
> 100 µM: TGI (SN12C renal) | TGI (HCT-116 colon) | TGI (SK-OV-3 ovarian) | TGI (IGROV1 ovarian)
27.6 µM: TGI (RPMI-8226 leukemia)
23.9 µM: TGI (HOP-62 NSCLC)

CCOC(=O)C1=C(Nc2ccc(Br)cc2)OC/C1=N\NC(=O)c1ccccc1O
49.4 µM: TGI (RPMI-8226 leukemia)
> 65.1 µM: TGI (HOP-62 NSCLC)
> 67.7 µM: TGI (SK-OV-3 ovarian)
> 100 µM: TGI (SN12C renal) | TGI (SK-MEL-28 melanoma) | TGI (SF-268 CNS) | TGI (IGROV1 ovarian)
> 62 µM: TGI (HCT-116 colon)
> 84 µM: TGI (NCI-H226 lung)

Fc1ccc2c(c1)C1=C(CO2)C(c2ccc(Cl)cc2)NC(=S)N1 (stereo unspecified)
> 100 µM: TGI (PC-3 prostate) | TGI (SK-OV-3 ovarian)
61 µM: TGI (IGROV1 ovarian)
34.5 µM: TGI (RPMI-8226 leukemia)
inactive: GI50 (SN12C renal) 17.7 µM | GI50 (PC-3 prostate) 37.2 µM | GI50 (SK-OV-3 ovarian) 68.8 µM | GI50 (RPMI-8226 leukemia) 11.1 µM | GI50 (IGROV1 ovarian) 24.3 µM
40.2 µM: TGI (SN12C renal)

CC(=O)OC1CCC2C(=CCC3C2(C)C(=O)CC2(C)C(C4(C)OC(C(C)C)=CC4=O)C(O)CC32C)C1(C)C (stereo unspecified)
> 100 µM: TGI (SN12C renal) | TGI (NCI-H226 lung) | TGI (SK-OV-3 ovarian) | TGI (SF-268 CNS) | TGI (IGROV1 ovarian) | TGI (HOP-62 NSCLC)
56.7 µM: TGI (RPMI-8226 leukemia)
> 10 µM: TGI (HCT-116 colon)

CNC1=C(C(=O)OC)SC(c2ccccc2)(c2ccccc2)SC1
> 100 µM: TGI (SN12C renal) | TGI (NCI-H226 lung) | TGI (HCT-116 colon) | TGI (PC-3 prostate) | TGI (SK-OV-3 ovarian) | TGI (SK-MEL-28 melanoma) | TGI (SF-268 CNS) | TGI (HOP-62 NSCLC)
39.7 µM: TGI (RPMI-8226 leukemia)
inactive: GI50 (SN12C renal) 24 µM | GI50 (NCI-H226 lung) > 100 µM | GI50 (HCT-116 colon) 9.22 µM | GI50 (PC-3 prostate) 15.3 µM | GI50 (SK-OV-3 ovarian) 71.1 µM | GI50 (SK-MEL-28 melanoma) 26.6 µM | GI50 (SF-268 CNS) 18.9 µM | GI50 (RPMI-8226 leukemia) 8.83 µM | GI50 (HOP-62 NSCLC) 39.4 µM

CC(=O)/C=C1\CC(=O)Nc2ccccc2N1
> 100 µM: TGI (SN12C renal) | TGI (NCI-H226 lung) | TGI (HCT-116 colon) | TGI (SK-OV-3 ovarian) | TGI (SK-MEL-28 melanoma) | TGI (SF-268 CNS) | TGI (RPMI-8226 leukemia) | TGI (IGROV1 ovarian)

CCn1c(=O)c2ccccc2n2c(=O)c3cc4ccccc4cc3nc12
> 100 µM: TGI (SN12C renal) | TGI (NCI-H226 lung) | TGI (HCT-116 colon) | TGI (SK-OV-3 ovarian) | TGI (SF-268 CNS) | TGI (RPMI-8226 leukemia) | TGI (IGROV1 ovarian) | TGI (HOP-62 NSCLC)

CS/C(c1ccccc1)=[N+](\[O-])Cc1ccccc1
> 100 µM: TGI (SN12C renal) | TGI (NCI-H226 lung) | TGI (HCT-116 colon) | TGI (SK-OV-3 ovarian) | TGI (SK-MEL-28 melanoma) | TGI (SF-268 CNS) | TGI (IGROV1 ovarian) | TGI (HOP-62 NSCLC)
55.3 µM: TGI (RPMI-8226 leukemia)

COc1ccc2c(CCNC(=O)/C=C/c3ccccc3)c(C(C)=O)[nH]c2c1[N+](=O)[O-]
46.7 µM: TGI (NCI-H226 lung)
9.08 µM: TGI (SF-268 CNS)
87.2 µM: TGI (HCT-116 colon)
56.2 µM: TGI (IGROV1 ovarian)
> 100 µM: TGI (SN12C renal) | TGI (SK-MEL-28 melanoma) | TGI (RPMI-8226 leukemia)
76.2 µM: TGI (HOP-62 NSCLC)

CCOC(=O)N1C(c2ccccc2)C=CC(c2ccccc2)N1C(=O)OCC (stereo unspecified)
> 100 µM: TGI (SN12C renal) | TGI (HCT-116 colon) | TGI (SK-MEL-28 melanoma) | TGI (SF-268 CNS) | TGI (RPMI-8226 leukemia) | TGI (IGROV1 ovarian) | TGI (HOP-62 NSCLC)

O=C(O)c1ccccc1N=Nc1ccc2oc(=O)c(C(=O)Nc3ccccc3)cc2c1
> 100 µM: TGI (SN12C renal) | TGI (NCI-H226 lung) | TGI (HCT-116 colon) | TGI (SK-OV-3 ovarian) | TGI (SK-MEL-28 melanoma) | TGI (RPMI-8226 leukemia) | TGI (IGROV1 ovarian)
97.7 µM: TGI (HOP-62 NSCLC)

N#Cc1ccc(Oc2cccc(Oc3ccccc3)c2)cc1C#N
inactive: GI50 (SN12C renal) > 100 µM | GI50 (SK-OV-3 ovarian) > 100 µM | GI50 (IGROV1 ovarian) > 100 µM | GI50 (HOP-62 NSCLC) > 100 µM
> 100 µM: TGI (SN12C renal) | TGI (HCT-116 colon) | TGI (SK-OV-3 ovarian) | TGI (SK-MEL-28 melanoma) | TGI (SF-268 CNS) | TGI (IGROV1 ovarian) | TGI (HOP-62 NSCLC)
